Laboratory results reported in US9718828B2 (MERCK SHARP & DOHME CORP., priority 2011, dated 2017).
Counter-ions that a name gives are not always drawn.

biological target: hBTK (full-length BTK, 6HIS-tag cleaved) (Homo sapiens (Human), UniProt Q06187); experiment: BTK enzymatic activity, LANCE TR-FRET assay (Assay Method C); format: biochemical; conditions: LANCE TR-FRET, 50 pM hBTK, 25 μM ATP; class 100-1000 is given as ≧100 nM-<1 μM; read-out: IC50 Btk activity values - Assay Method C
Sequence (Q06187 whole entry): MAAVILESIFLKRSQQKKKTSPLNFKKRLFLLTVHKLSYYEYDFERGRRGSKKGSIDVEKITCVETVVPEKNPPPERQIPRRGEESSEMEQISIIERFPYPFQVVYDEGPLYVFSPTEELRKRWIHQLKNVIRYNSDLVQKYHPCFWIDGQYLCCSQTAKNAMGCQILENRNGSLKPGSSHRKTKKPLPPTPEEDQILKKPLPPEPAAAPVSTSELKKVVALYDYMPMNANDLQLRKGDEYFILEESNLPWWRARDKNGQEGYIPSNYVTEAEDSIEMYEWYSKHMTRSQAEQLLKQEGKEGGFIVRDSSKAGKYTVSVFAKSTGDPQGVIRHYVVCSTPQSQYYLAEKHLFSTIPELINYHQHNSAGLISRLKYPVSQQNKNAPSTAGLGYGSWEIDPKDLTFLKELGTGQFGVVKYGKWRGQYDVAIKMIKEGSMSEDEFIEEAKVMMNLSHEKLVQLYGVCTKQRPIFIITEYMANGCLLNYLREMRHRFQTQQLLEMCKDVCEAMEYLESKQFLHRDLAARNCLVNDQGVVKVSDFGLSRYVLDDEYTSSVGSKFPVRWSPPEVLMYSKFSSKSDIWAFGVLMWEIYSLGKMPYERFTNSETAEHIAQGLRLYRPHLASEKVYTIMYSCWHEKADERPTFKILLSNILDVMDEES

First: N#CCN1CCO[C@@H](c2nc(-c3ccc(C(=O)Nc4cc(C(F)(F)F)ccn4)cc3)c3c(N)nccn23)C1 [Example 531, 4-{8-amino-3-[(2R)-4-(cyanomethyl)morpholin-2-yl]imidazo[1,5-a]pyrazin-1-yl}-N-[4-(trifluoromethyl)pyridin-2-yl]benzamide]
Second: CCN1CCC(c2nc(-c3ccc(C(=O)Nc4cc(C(F)(F)F)ccn4)cc3)c3c(N)nccn23)CC1=O (stereo not drawn) [Example 573, 4-[8-amino-3-(1-ethyl-2-oxopiperidin-4-yl)imidazo[1,5-a]pyrazin-1-yl]-N-[4-(trifluoromethyl)-pyridin-2-yl]benzamide, TFA salt]
The IC50 of the first is lower: less than 10 nM for the first, 10 to 100 nM for the second. The first is the more potent here.

Nc1nccn2c([C@H]3CC[C@H](C(F)(F)F)N(C(=O)C4CC4)C3)nc(-c3ccc(C(=O)Nc4cc(F)ccn4)cc3)c12 [Example 424, 4-{8-amino-3-[(3S,6R)-1-(cyclopropylcarbonyl)-6-(trifluoromethyl)piperidin-3-yl]imidazo[1,5-a]pyrazin-1-yl}-N-(4-fluoropyridin-2-yl)benzamide] and C[C@H]1CC[C@@H](c2nc(-c3ccc(C(=O)Nc4cc(C(F)(F)F)ccn4)cc3)c3c(N)nccn23)CN1C(=O)C1(C)COC1 [Example 393, 4-(8-amino-3-{(3R,6S)-6-methyl-1-[(3-methyloxetan-3-yl)carbonyl]piperidin-3-yl}imidazo[1,5-a]pyrazin-1-yl)-N-[4-(trifluoromethyl)pyridin-2-yl]benzamide] cannot be ordered by IC50: less than 10 nM for the first, less than 10 nM for the second.

Nc1ncnc2c1c(-c1ccc(C(=O)Nc3cc(C(F)(F)F)ccn3)cc1)nn2[C@@H]1CCCc2c1cnn2CCO [Example 561, 4-{4-amino-1-[(4R)-1-(2-hydroxyethyl)-4,5,6,7-tetrahydro-1H-indazol-4-yl]-1H-pyrazolo[3,4-d]pyrimidin-3-yl}-N-[4-(trifluoromethyl)pyridin-2-yl]benzamide, TFA salt] and CCn1ncc2c1CCC[C@H]2n1nc(-c2ccc(C(=O)Nc3cc(C(F)(F)F)ccn3)cc2)c2c(N)ncnc21 [Example 559, 4-{4-amino-1-[(4R)-1-ethyl-4,5,6,7-tetrahydro-1H-indazol-4-yl]-1H-pyrazolo[3,4-d]pyrimidin-3-yl}-N-[4-(trifluoromethyl)pyridin-2-yl]benzamide, TFA salt] cannot be ordered by IC50: less than 10 nM for the first, less than 10 nM for the second.

Nc1nccn2c([C@H]3CN(C(=O)C4CC4)CCO3)nc(-c3ccc(C(=O)Nc4cc(C(F)(F)F)ccn4)cc3F)c12 [Example 512, 4-{8-amino-3-[(2R)-4-(cyclopropylcarbonyl)morpholin-2-yl]imidazo[1,5-a]pyrazin-1-yl}-3-fluoro-N-[4-(trifluoromethyl)pyridin-2-yl]benzamide, TFA salt] and Nc1nccn2c([C@@H]3CCCN(C(=O)CCC(F)(F)F)C3)nc(-c3ccc(C(=O)Nc4cc(C(F)(F)F)ccn4)cc3)c12 [Example 331, 4-{8-amino-3-[(3R)-1-(4,4,4-trifluorobutanoyl)piperidin-3-yl]imidazo[1,5-a]pyrazin-1-yl}-N-[4-(trifluoromethyl)pyridin-2-yl]benzamide] cannot be ordered by IC50: less than 10 nM for the first, less than 10 nM for the second.

CC1(C(=O)N2CCC[C@@H](c3nc(-c4ccc(C(=O)Nc5ncc(C(C)(C)C)s5)cc4)c4c(N)nccn34)C2)COC1 [Example 369, 4-(8-amino-3-{(3R)-1-[(3-methyloxetan-3-yl)carbonyl]piperidin-3-yl}imidazo[1,5-a]pyrazin-1-yl)-N-(5-tert-butyl-1,3-thiazol-2-yl)benzamide] and CO[C@H](C)c1cnc(N)c2c(-c3ccc(C(=O)Nc4cc(C(F)(F)F)ccn4)cc3)nc([C@@H]3CCCN(C(=O)C4(C)COC4)C3)n12 [Example 467, 4-(8-amino-5-[(1R)-1-methoxyethyl]-3-{(3R)-1-[(3-methyloxetan-3-yl)carbonyl]piperidin-3-yl}imidazo[1,5-a]pyrazin-1-yl)-N-[4-(trifluoromethyl)pyridin-2-yl]benzamide] cannot be ordered by IC50: less than 10 nM for the first, less than 10 nM for the second.

With CCCOc1ccnc(NC(=O)c2ccc(-c3nc([C@@H]4CCCN(C(=O)C5(C)COC5)C4)n4ccnc(N)c34)c(F)c2)c1 [Example 481, 4-(8-amino-3-{(3R)-1-[(3-methyloxetan-3-yl)carbonyl]piperidin-3-yl}imidazo[1,5-a]pyrazin-1-yl)-3-fluoro-N-(4-propoxypyridin-2-yl)benzamide] the IC50 was less than 10 nM.

same assay, conditions: Table D; Assay Method C (LANCE TR-FRET), 50 pM hBTK, 25 μM ATP; read-out: IC50 BTK activity value

In the case of C[C@H]1CC[C@@H](c2nc(-c3ccc(C(=O)Nc4cc(C(F)(F)F)ccn4)cc3)c3c(N)nccn23)CN1C(=O)C1(C)COC1 [Example 393, 4-(8-amino-3-{(3R,6S)-6-methyl-1-[(3-methyloxetan-3-yl)carbonyl]piperidin-3-yl}imidazo[1,5-a]pyrazin-1-yl)-N-[4-(trifluoromethyl)pyridin-2-yl]benzamide], the IC50 is reported as 0.167 nM.

biological target: Btk enzyme (His-Btk) (Homo sapiens (Human), UniProt Q06187); experiment: Btk enzyme activity, IMAP fluorescence polarization assay (Assay Method A); conditions: not given
Sequence (Q06187 whole entry): as above

Compared with COCCC(=O)N1CCC[C@@H](c2nc(-c3ccc(C(=O)Nc4cc(C#N)ccn4)cc3)c3c(N)nccn23)C1 [Example 97, (R)-4-(8-amino-3-(1-(3-methoxypropanoyl)piperidin-3-yl)imidazo[1,5-a]pyrazin-1-yl)-N-(4-cyanopyridin-2-yl)benzamide], COCCC(=O)N1CCC[C@@H](c2nc(-c3ccc(C(=O)Nc4ccccn4)cc3C)c3c(N)nccn23)C1 [Example 285, 4-(8-amino-3-((R)-1-(3-methoxypropanoyl)piperidin-3-yl)imidazo[1,5-a]pyrazin-1-yl)-3-methyl-N-(pyridin-2-yl)benzamide, TFA salt] is higher in EC50: less than 10 nM for the first, 10 to 100 nM for the second. The first is the more potent here.

Nc1nccn2c(C3CC4CCC3N4C(=O)C3CCCO3)nc(-c3ccc(C(=O)Nc4ccccn4)cc3)c12 (stereo not drawn) [Example 146, 4-(8-amino-3-(7-(tetrahydrofuran-2-carbonyl)-7-azabicyclo[2.2.1]heptan-2-yl)imidazo[1,5-a]pyrazin-1-yl)-N-(pyridin-2-yl)benzamide] and COCCC(=O)N1C2CCC1C(c1nc(-c3ccc(C(=O)Nc4ccccn4)cc3)c3c(N)nccn13)C2 (stereo not drawn) [Example 148, 4-(8-amino-3-(7-(3-methoxypropanoyl)-7-azabicyclo[2.2.1]heptan-2-yl)imidazo[1,5-a]pyrazin-1-yl)-N-(pyridin-2-yl)benzamide] fall in the same range of EC50: 10 to 100 nM for the first, 10 to 100 nM for the second.

Nc1nccn2c1c(-c1ccc(C(=O)Nc3ccccn3)c(F)c1)nc2[C@H]1CC[C@H](O)CC1 [Example 12, 4-(8-amino-3-((trans)-4-hydroxycyclohexyl)imidazo[1,5-a]pyrazin-1-yl)-2-fluoro-N-(pyridin-2-yl)benzamide] and Nc1nccn2c([C@@H]3CCCN(C(=O)C(=O)C(F)(F)F)C3)nc(-c3ccc(C(=O)Nc4cc(C5CC5)ccn4)cc3)c12 [Example 115, (R)-4-(8-amino-3-(1-(3,3,3-trifluoro-2-oxopropanoyl)piperidin-3-yl)imidazo[1,5-a]pyrazin-1-yl)-N-(4-cyclopropylpyridin-2-yl)benzamide] fall in the same range of EC50: 100 to 1000 nM for the first, 100 to 1000 nM for the second.

same assay, conditions: read-out: EC50 Btk activity values - Assay Method A; IMAP-FP, 60 min pre-incubation, 5 μM ATP; class 100-1000 is given as ≧100 nM-<1 μM

CCC(=O)N1C[C@H](c2nc(-c3ccc(C(=O)Nc4ccccn4)cc3)c3c(N)nccn23)CC[C@@H]1C (relative stereo) [Example 207, 4-(8-amino-3-((cis)-6-methyl-1-propionylpiperidin-3-yl)imidazo[1,5-a]pyrazin-1-yl)-N-(pyridin-2-yl)benzamide, TFA salt] and N#Cc1csc(C(=O)N2CCC[C@@H](c3nc(-c4ccc(C(=O)Nc5cc(C6CC6)ccn5)cc4)c4c(N)nccn34)C2)c1 [Example 118, (R)-4-(8-amino-3-(1-(4-cyanothiophene-2-carbonyl)piperidin-3 yl)imidazo[1,5-a]pyrazin-1-yl)-N-(4-cyclopropylpyridin-2-yl)benzamide] cannot be ordered by EC50: less than 10 nM for the first, less than 10 nM for the second.

With Nc1nccn2c([C@@H]3CCCN(CC4CCOC4)C3)nc(-c3ccc(C(=O)Nc4cc(C(F)(F)F)ccn4)cc3)c12 (stereo partly drawn) [Example 142, 4-(8-amino-3-((3R)-1-((tetrahydrofuran-3-yl)methyl)piperidin-3-yl)imidazo[1,5-a]pyrazin-1-yl)-N-(4-(trifluoromethyl)pyridin-2-yl)benzamide, TFA salt] the EC50 was less than 10 nM.
